The supplement of paper PMC9663587

Experiments:
[1] = compound: CCN1CCN(Cc2ccc(Nc3ncc(F)c(-c4cc(F)c5nc(C)n(C(C)C)c5c4)n3)nc2)CC1; experiment: increase in dead-cell fraction, 72 h; higher = more death;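 note: breast cancer cell lines in 384-well plates, stained with Hoechst plus LIVE/DEAD far red dye and imaged, cells above an LDR intensity threshold counted dead, Hoechst-negative corpses included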
THZ531 = compound: CN(C)C/C=C/C(=O)Nc1ccc(C(=O)N2CCC[C@@H](Nc3ncc(Cl)c(-c4c[nH]c5ccccc45)n3)C2)cc1 [THZ531]; experiment: as above
Flavopiridol = compound: CN1CC[C@H](c2c(O)cc(O)c3c(=O)cc(-c4ccccc4Cl)oc23)[C@H](O)C1 [Flavopiridol]; experiment: as above
LEE011/Ribociclib [2] = compound: T1, CN(C)C(=O)c1cc2cnc(Nc3ccc(N4CCNCC4)cn3)nc2n1C1CCCC1 [LEE011/Ribociclib]; experiment: as above
THZ1 = compound: CN(C)C/C=C/C(=O)Nc1ccc(C(=O)Nc2cccc(Nc3ncc(Cl)c(-c4c[nH]c5ccccc45)n3)c2)cc1 [THZ1]; experiment: as above
BSJ-03-123 = compound: CC(=O)c1c(C)c2cnc(Nc3ccc(N4CCN(CCOCCOCCOCCNC(=O)COc5cccc6c5C(=O)N(C5CCC(=O)NC5=O)C6=O)CC4)cn3)nc2n(C2CCCC2)c1=O [BSJ-03-123]; experiment: as above
Neratinib/HKI272 = compound: CCOc1cc2ncc(C#N)c(Nc3ccc(OCc4ccccn4)c(Cl)c3)c2cc1NC(=O)/C=C/CN(C)C [Neratinib/HKI272]; experiment: as above
YKL-5-124 = compound: C=CC(=O)Nc1ccc(C(=O)Nc2[nH]nc3c2CN(C(=O)N[C@H](CN(C)C)c2ccccc2)C3(C)C)cc1 [YKL-5-124]; experiment: as above
[3] = compound: CCc1cnn2c(NCc3ccc[n+]([O-])c3)cc(N3CCCC[C@H]3CCO)nc12; experiment: as above
[4] = compound: CC(=O)c1c(C)c2cnc(Nc3ccc(N4CCNCC4)cn3)nc2n(C2CCCC2)c1=O; experiment: as above
LEE011/Ribociclib [5] = compound: T1, LEE011/Ribociclib
Ceritinib/LDK378 = compound: Cc1cc(Nc2ncc(Cl)c(Nc3ccccc3S(=O)(=O)C(C)C)n2)c(OC(C)C)cc1C1CCNCC1 [Ceritinib/LDK378]
Doxorubicin = compound: COc1cccc2c1C(=O)c1c(O)c3c(c(O)c1C2=O)C[C@@](O)(C(=O)CO)C[C@@H]3O[C@H]1C[C@H](N)[C@H](O)[C@H](C)O1 [Doxorubicin]
[6] = compound: Cc1nn(C)c(COc2ccc(N3CCN(S(=O)(=O)N(C)C)CC3)cc2)c1-c1cccc2c(CCCOc3cccc4ccccc34)c(C(=O)O)n(CCN3CCOCC3)c12
Pictilisib/GDC0941 = compound: CS(=O)(=O)N1CCN(Cc2cc3nc(-c4cccc5[nH]ncc45)nc(N4CCOCC4)c3s2)CC1 [Pictilisib/GDC0941]
[7] = compound: CCc1cnn2c(NCc3ccc[n+]([O-])c3)cc(N3CCCC[C@H]3CCO)nc12
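Throughout, for GR50, 72 h: breast cancer and non-malignant breast epithelial cell lines, Deep Dye Drop or Dye Drop imaging, nine half-log doses, GR normalized to time-zero plates and DMSO-only controls.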

Cell Line: HCC1569
- increase in dead-cell fraction ([1]; 0.001 µM): -0.0009
- increase in dead-cell fraction ([1]; 0.003162 µM): 0.0054
- increase in dead-cell fraction ([1]; 0.01 µM): 0.0105
- increase in dead-cell fraction ([1]; 0.03162 µM): 0.0034
- increase in dead-cell fraction ([1]; 0.1 µM): -0.0024
- increase in dead-cell fraction ([1]; 0.3162 µM): -0.0047
- increase in dead-cell fraction ([1]; 1 µM): 0.0011
- increase in dead-cell fraction ([1]; 3.162 µM): 0.0024
- increase in dead-cell fraction ([1]; 10 µM): 0.0361
- increase in dead-cell fraction (THZ531; 0.0001 µM): 0.0019
- increase in dead-cell fraction (THZ531; 0.0003162 µM): -0.0034
- increase in dead-cell fraction (THZ531; 0.001 µM): -0.0007
- increase in dead-cell fraction (THZ531; 0.003162 µM): 0.0032
- increase in dead-cell fraction (THZ531; 0.01 µM): 0.0103
- increase in dead-cell fraction (THZ531; 0.03162 µM): 0.0155
- increase in dead-cell fraction (THZ531; 0.1 µM): 0.161
- increase in dead-cell fraction (THZ531; 0.3162 µM): 0.273
- increase in dead-cell fraction (THZ531; 1 µM): 0.0822
- increase in dead-cell fraction (Flavopiridol; 0.0001 µM): -0.0248
- increase in dead-cell fraction (Flavopiridol; 0.0003162 µM): 0.001
- increase in dead-cell fraction (Flavopiridol; 0.001 µM): 0.0101
- increase in dead-cell fraction (Flavopiridol; 0.003162 µM): 0.0075
- increase in dead-cell fraction (Flavopiridol; 0.01 µM): -0.0095
- increase in dead-cell fraction (Flavopiridol; 0.03162 µM): -0.0064
- increase in dead-cell fraction (Flavopiridol; 0.1 µM): 0.0067
- increase in dead-cell fraction (Flavopiridol; 0.3162 µM): 0.0986
- increase in dead-cell fraction (Flavopiridol; 1 µM): 0.102
- increase in dead-cell fraction (LEE011/Ribociclib [2]; 0.001 µM): 0.0294
- increase in dead-cell fraction (LEE011/Ribociclib [2]; 0.003162 µM): 0.0001
- increase in dead-cell fraction (LEE011/Ribociclib [2]; 0.01 µM): -0.0082
- increase in dead-cell fraction (LEE011/Ribociclib [2]; 0.03162 µM): 0.0025
- increase in dead-cell fraction (LEE011/Ribociclib [2]; 0.1 µM): -0.0135
- increase in dead-cell fraction (LEE011/Ribociclib [2]; 0.3162 µM): -0.0045
- increase in dead-cell fraction (LEE011/Ribociclib [2]; 1 µM): -0.0042
- increase in dead-cell fraction (LEE011/Ribociclib [2]; 3.162 µM): -0.0048
- increase in dead-cell fraction (LEE011/Ribociclib [2]; 10 µM): -0.0015
- increase in dead-cell fraction (THZ1; 0.0001 µM): -0.004
- increase in dead-cell fraction (THZ1; 0.0003162 µM): -0.0128
- increase in dead-cell fraction (THZ1; 0.001 µM): 0.0063
- increase in dead-cell fraction (THZ1; 0.003162 µM): -0.0051
- increase in dead-cell fraction (THZ1; 0.01 µM): 0.0163
- increase in dead-cell fraction (THZ1; 0.03162 µM): 0.0231
- increase in dead-cell fraction (THZ1; 0.1 µM): 0.208
- increase in dead-cell fraction (THZ1; 0.3162 µM): 0.147
- increase in dead-cell fraction (THZ1; 1 µM): 0.166
- increase in dead-cell fraction (BSJ-03-123; 0.001 µM): 0.0046
- increase in dead-cell fraction (BSJ-03-123; 0.003162 µM): -0.0135
- increase in dead-cell fraction (BSJ-03-123; 0.01 µM): 0.0005
- increase in dead-cell fraction (BSJ-03-123; 0.03162 µM): 0.0168
- increase in dead-cell fraction (BSJ-03-123; 0.1 µM): 0.002
- increase in dead-cell fraction (BSJ-03-123; 0.3162 µM): 0.0007
- increase in dead-cell fraction (BSJ-03-123; 1 µM): 0.0247
- increase in dead-cell fraction (BSJ-03-123; 3.162 µM): 0.0066
- increase in dead-cell fraction (BSJ-03-123; 10 µM): 0.0866
- increase in dead-cell fraction (Neratinib/HKI272; 0.0003162 µM): -0.0105
- increase in dead-cell fraction (Neratinib/HKI272; 0.001 µM): 0.0063
- increase in dead-cell fraction (Neratinib/HKI272; 0.003162 µM): 0.0037
- increase in dead-cell fraction (Neratinib/HKI272; 0.01 µM): 0.0107
- increase in dead-cell fraction (Neratinib/HKI272; 0.03162 µM): 0.0135
- increase in dead-cell fraction (Neratinib/HKI272; 0.1 µM): 0.0196
- increase in dead-cell fraction (Neratinib/HKI272; 0.3162 µM): 0.0247
- increase in dead-cell fraction (Neratinib/HKI272; 1 µM): 0.0283
- increase in dead-cell fraction (Neratinib/HKI272; 3.162 µM): 0.0338
- increase in dead-cell fraction (YKL-5-124; 0.001 µM): 0.0331
- increase in dead-cell fraction (YKL-5-124; 0.003162 µM): 0.014
- increase in dead-cell fraction (YKL-5-124; 0.01 µM): -0.0042
- increase in dead-cell fraction (YKL-5-124; 0.03162 µM): 0.0104
- increase in dead-cell fraction (YKL-5-124; 0.1 µM): -0.0403
- increase in dead-cell fraction (YKL-5-124; 0.3162 µM): 0.0447
- increase in dead-cell fraction (YKL-5-124; 1 µM): 0.0404
- increase in dead-cell fraction (YKL-5-124; 3.162 µM): 0.0237
- increase in dead-cell fraction (YKL-5-124; 10 µM): 0.151
- increase in dead-cell fraction ([3]; 0.0001 µM): -0.0022
- increase in dead-cell fraction ([3]; 0.0003162 µM): -0.0018
- increase in dead-cell fraction ([3]; 0.001 µM): -0.0077
- increase in dead-cell fraction ([3]; 0.003162 µM): -0.0052
- increase in dead-cell fraction ([3]; 0.01 µM): 0.0106
- increase in dead-cell fraction ([3]; 0.03162 µM): 0.112
- increase in dead-cell fraction ([3]; 0.1 µM): 0.155
- increase in dead-cell fraction ([3]; 0.3162 µM): 0.138
- increase in dead-cell fraction ([3]; 1 µM): 0.141
- increase in dead-cell fraction ([4]; 0.0003162 µM): 0.0023
- increase in dead-cell fraction ([4]; 0.001 µM): -0.0102
- increase in dead-cell fraction ([4]; 0.003162 µM): 0.0038
- increase in dead-cell fraction ([4]; 0.01 µM): 0.0052
- increase in dead-cell fraction ([4]; 0.03162 µM): -0.0056
- increase in dead-cell fraction ([4]; 0.1 µM): -0.0096
- increase in dead-cell fraction ([4]; 0.3162 µM): 0.0042
- increase in dead-cell fraction ([4]; 1 µM): 0.0001
- increase in dead-cell fraction ([4]; 3.162 µM): -0.0109
- GR50, 72 h (LEE011/Ribociclib [5]): > 10 µM
- GR50, 72 h (Ceritinib/LDK378): 4.5 µM
- GR50, 72 h (Doxorubicin): 0.0255 µM
- GR50, 72 h [6]: > 10 µM
- GR50, 72 h (Pictilisib/GDC0941): 0.599 µM
- GR50, 72 h [7]: 0.0164 µM
